Results: patent US8148070B2, “Genetic polymorphisms associated with coronary events and drug response, methods of detection and uses thereof” (Celera Corporation, priority 2007, dated 2012)

Tested on: WOSCOPS patients
Test: WOSCOPS nested case-control study: pravastatin vs placebo, primary CHD in subgroups defined by genotype
Assay type: in vivo, human
Settings: for Case (patients with coronary event): pravastatin arm; for risk reduction (coronary events) / OR, Effect of Pravastatin on MI and CHD: pravastatin vs placebo
Text: In order to identify genetic markers associated with CHD (particularly MI, including recurrent MI) or the effect of statin treatment on CHD, samples were genotyped in two clinical trials: the Cholesterol and Recurrent Events (CARE) study (a randomized multicentral double-blinded trial on secondary prevention of MI with pravastatin (Pravachol®); Sacks et al., Am. J. Cardiol. 68: 1436-1446 [1991]), and the West of Scotland Coronary Prevention Study (WOSCOPS) study (a randomized multicentral double-blinded trial on primary prevention of CHD with pravastatin (Pravachol®); Shepherd et al., N Eng J Med 333 (20), pp. 1301-7, Nov. 16, 1995; Packard et al., N Eng J Med 343 (16), pp. 1148-55, Oct. 19, 2000).
The designs of the original WOSCOPS cohort and the nested case-control study have been described (Shepherd et al., N Eng J Med 333 (20), pp. 1301-7, Nov. 16, 1995; Packard et al., N Eng J Med 343 (16), pp. 1148-55, Oct. 19, 2000). The objective of the WOSCOPS trial was to assess pravastatin efficacy at reducing risk of primary MI or coronary death among Scottish men with hypercholesterolemia (fasting LDL cholesterol>155 mg/dl). Participants in the WOSCOPS study were 45-64 years of age and followed for an average of 4.9 years for coronary events. The nested case-control study included as cases all WOSCOPS patients who experienced a coronary event (confirmed nonfatal MI, death from CHD, or a revascularization procedure; N=580). Controls were age- and smoking-matched to unaffected patients.
In analyzing the CARE patients, statistical analysis was performed with SAS version 9. Cox proportional hazard models (Wald tests) were used in CARE to assess the association of genotype with both the risk of incident MI in the placebo arm and the effect of pravastatin on MI compared to placebo in subgroups defined by genotypes. In analyzing the WOSCOPS patients, a conditional logistic regression model was used in WOSCOPS given that the controls had been previously matched to the cases. The column entitled “On-trial MI” lists the number of patients who suffered a recurrent MI during the clinical trial period.
HR stands for Hazard Ratio, which is a concept similar to Odds Ratio (OR). The HR in event-free survival analysis is the effect of an explanatory variable on the hazard or risk of an event. For examples, it describes the likelihood of developing MI based on comparison of rate of coronary events between carriers of the certain allele and noncarriers; therefore, HR=1.5 would mean that carriers of the certain allele have 50% higher risk of coronary events during the study follow up than non-carriers. HR can also describe the effect of statin therapy on coronary events based on comparison of rate of coronary events between patient treated with statin and patient treated with placebo (or other statin) in subgroups defined by SNP genotype; therefore, HR=0.5 would mean that, for example, carriers of the certain allele, had 50% reduction of coronary events by statin therapy as compared to placebo. In Table 6, p interaction values were calculated. An interaction (or effect modification) is formed when a third variable modifies the relation between an exposure and outcome. […] Genotype and drug interaction is present when the effect of statins (incidence rate of disease in statin-treated group, as compared to placebo) differs in patients with different genotypes. The hCV3054799 risk allele predicted risk of MI in CARE and was associated with odds of CHD in WOSCOPS.

CC[C@H](C)C(=O)O[C@H]1C[C@H](O)C=C2C=C[C@H](C)[C@H](CC[C@@H](O)C[C@@H](O)CC(=O)O)[C@H]21 [Pravastatin, pravastatin]
OR, Adjusted (CHD, pravastatin vs placebo) (AA (noncarriers), matched and adjusted): 0.91 | OR, Matched (CHD, pravastatin vs placebo) (AA (noncarriers), matched for age and smoking): 0.94 | Case (patients with coronary event) (AA, 213 controls): 81 number of patients | OR, Matched (CHD, pravastatin vs placebo) (GG + GA (719Arg carriers), cases and controls matched for age and smoking): 0.50 | OR, Adjusted (CHD, pravastatin vs placebo) (GG + GA (719Arg carriers), matched and adjusted for hypertension, diabetes, BMI, LDL-C, HDL-C): 0.50 | Case (patients with coronary event) (GG + GA, 330 controls): 108 number of patients | risk reduction (coronary events) (carriers of the KIF6 719Arg allele, significant): 50% | risk reduction (coronary events) (noncarriers, insignificant): 9% | OR, Effect of Pravastatin on MI and CHD (hCV3054808 genotype AA): 0.55 | OR, Effect of Pravastatin on MI and CHD (hCV3054808 genotype AC): 0.52 | OR, Effect of Pravastatin on MI and CHD (hCV3054808 genotype CC): 0.89 | OR, Effect of Pravastatin on MI and CHD (hCV3054813 genotype CC): 0.64 | OR, Effect of Pravastatin on MI and CHD (hCV3054813 genotype CT): 0.51 | OR, Effect of Pravastatin on MI and CHD (hCV3054813 genotype TT): 0.95 | OR, Effect of Pravastatin on MI and CHD (hCV29992177 genotype AA): 0.71 | OR, Effect of Pravastatin on MI and CHD (hCV29992177 genotype GA): 0.54 | OR, Effect of Pravastatin on MI and CHD (hCV29992177 genotype GG): 2.55 | OR, Effect of Pravastatin on MI and CHD (hCV30225864 genotype CC): 0.67 | OR, Effect of Pravastatin on MI and CHD (hCV30225864 genotype CT): 0.54 | OR, Effect of Pravastatin on MI and CHD (hCV30225864 genotype TT): 0.78
